Read-outs that look alike come from different tables or passages of the source.
Key:
Format in all cases: in vivo
[1] = tested on: bermudagrass (Cynodon dactylon); assay: Test C pre/postemergence; conditions: Cynodon dactylon; for pest or weed control at 31 g/ha: 31 g ai/ha; for pest or weed control at 62 g/ha: 62 g ai/ha; for pest or weed control at 125 g/ha: 125 g ai/ha
Source text: (§1) Seeds or nutlets of plant species selected from bermudagrass (Cynodon dactylon), Surinam grass (Brachiaria decumbens), cocklebur (Xanthium strumarium), corn (Zea mays), crabgrass (Digitaria sanguinalis), woolly cupgrass (Eriochloa villosa), giant foxtail (Setaria faberii), goosegrass (Eleusine indica), johnsongrass (Sorghum halepense), kochia (Kochia scoparia), lambsquarters (Chenopodium album), morningglory (Ipomoea coccinea), eastern black nightshade (Solanum ptycanthum), yellow nutsedge (Cyperus esculentus), pigweed (Amaranthus retroflexus), common ragweed (Ambrosia elatior), soybean (Glycine max), common (oilseed) sunflower (Helianthus annuus), and velvetleaf (Abutilon theophrasti) were planted and treated preemergence with test chemicals formulated in a non-phytotoxic solvent mixture which included a surfactant.
(§2) At the same time, plants selected from these crop and weed species and also winter barley (Hordeum vulgare), blackgrass (Alopecurus myosuroides), canarygrass (Phalaris minor), chickweed (Stellaria media), downy brome (Bromus tectorum), green foxtail (Setaria viridis), Italian ryegrass (Lolium multiflorum), wheat (Triticum aestivum), wild oat (Avena fatua) and windgrass (Apera spica-venti) were treated with postemergence applications of some of the test chemicals formulated in the same manner. Plants ranged in height from 2 to 18 cm (1- to 4-leaf stage) for postemergence treatments. Plant species in the flooded paddy test consisted of rice (Oryza sativa), umbrella sedge (Cyperus difformis), duck salad (Heteranthera limosa) and barnyardgrass (Echinochloa crus-galli) grown to the 2-leaf stage for testing. Treated plants and controls were maintained in a greenhouse for 12 to 14 days, after which time all species were compared to controls and visually evaluated. Plant response ratings, summarized in Table C, are based on a scale of 0 to 100 where 0 is no effect and 100 is complete control. A dash (-) response means no test result.

soybean (Glycine max) = assay: Test C pre/postemergence; conditions: Glycine max; for plant injury at 31 g/ha: 31 g ai/ha; for plant injury at 62 g/ha: 62 g ai/ha
Source text: as §1, §2

[2] = tested on: johnsongrass (Sorghum halepense); assay: Test C pre/postemergence; conditions: Sorghum halepense; for pest or weed control at 31 g/ha: 31 g ai/ha; for pest or weed control at 62 g/ha: 62 g ai/ha; for pest or weed control at 125 g/ha: 125 g ai/ha
Source text: as §1, §2

[3] = tested on: giant foxtail (Setaria faberii); assay: Test C pre/postemergence; conditions: Setaria faberi; for pest or weed control at 125 g/ha: 125 g ai/ha; for pest or weed control at 31 g/ha: 31 g ai/ha; for pest or weed control at 62 g/ha: 62 g ai/ha
Source text: as §1, §2

[4] = tested on: giant foxtail (Setaria faberi); assay: Test A pre/postemergence; conditions: Setaria faberi, 240 h, read-out: Plant response rating, Foxtail, Giant; for pest or weed control at 125 g/ha: 125 g ai/ha; for pest or weed control at 500 g/ha: 500 g ai/ha
Method in brief: (§3)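 Visual injury scores on a 0–100 scale, 100 being complete control, were assigned roughly ten days after treatment by comparison with untreated greenhouse controls. Test chemicals, formulated with surfactant in non-phytotoxic solvent, were sprayed onto soil preemergence and onto 1–2-leaf plants 2–10 cm tall postemergence.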

[5] = tested on: barnyardgrass (Echinochloa crus-galli); assay: Test A pre/postemergence; conditions: Echinochloa crus-galli, 240 h, read-out: Plant response rating, Barnyardgrass; for pest or weed control at 125 g/ha: 125 g ai/ha; for pest or weed control at 500 g/ha: 500 g ai/ha
Method in brief: as §3

[6] = tested on: morningglory (Ipomoea spp.); assay: Test A pre/postemergence; conditions: Ipomoea, 240 h, read-out: Plant response rating, Morningglory; for pest or weed control at 125 g/ha: 125 g ai/ha; for pest or weed control at 500 g/ha: 500 g ai/ha
Method in brief: as §3

[7] = tested on: crabgrass (Digitaria sanguinalis); assay: Test A pre/postemergence; conditions: Digitaria sanguinalis, 240 h, read-out: Plant response rating, Crabgrass; for pest or weed control at 125 g/ha: 125 g ai/ha; for pest or weed control at 500 g/ha: 500 g ai/ha
Method in brief: as §3

[8] = tested on: redroot pigweed (Amaranthus retroflexus); assay: Test A pre/postemergence; conditions: Amaranthus retroflexus, 240 h, read-out: Plant response rating, Pigweed; for pest or weed control at 125 g/ha: 125 g ai/ha; for pest or weed control at 500 g/ha: 500 g ai/ha
Method in brief: as §3

[9] = tested on: velvetleaf (Abutilon theophrasti); assay: Test A pre/postemergence; conditions: Abutilon theophrasti, 240 h, read-out: Plant response rating, Velvetleaf; for pest or weed control at 125 g/ha: 125 g ai/ha; for pest or weed control at 500 g/ha: 500 g ai/ha
Method in brief: as §3

[10] = post-emergence, Postemergence, scale 0 to 100 (0 no effect, 100 complete control), read-out: Bermudagrass plant response rating
[11] = pre-emergence, Preemergence, scale 0 to 100, 0 no effect, 100 complete control, read-out: Plant response rating, Bermudagrass
[12] = post-emergence, Postemergence, read-out: Plant response rating (scale of 0 to 100), Soybean
[13] = pre-emergence, Preemergence, scale 0 to 100, 0 no effect, 100 complete control, read-out: Plant response rating, Soybean
[14] = post-emergence, Postemergence, read-out: Plant response rating (scale of 0 to 100), Johnsongrass
[15] = pre-emergence, Preemergence, scale 0 to 100, 0 no effect, 100 complete control, read-out: Plant response rating, Johnsongrass
[16] = post-emergence, Postemergence, read-out: Plant response rating (scale of 0 to 100), Foxtail, Giant
[17] = pre-emergence, Preemergence, scale 0 to 100, 0 no effect, 100 complete control, read-out: Plant response rating, Foxtail, Giant
[18] = post-emergence, Postemergence, 0 to 100 scale (0 no effect, 100 complete control)
[19] = pre-emergence, Preemergence, 0 to 100 scale where 0 is no effect and 100 is complete control, approximately ten days

## Nc1nc(C2CC2)nc(C(=O)OCc2ccccc2)c1Cl [Compound 78, phenylmethyl 6-amino-5-chloro-2-cyclopropyl-4-pyrimidinecarboxylate]
[1]; post-emergence, Postemergence, read-out: Plant response rating (scale of 0 to 100), Bermudagrass
  pest or weed control at 31 g/ha: 60%
[1]; [10]
  pest or weed control at 62 g/ha: 60%
  pest or weed control at 125 g/ha: 60%
[1]; post-emergence, Postemergence, 250 g ai/ha, scale 0 to 100, read-out: Plant response rating, Bermudagrass
  pest or weed control at 250 g/ha: 65%
[1]; pre-emergence, Preemergence, 16 g ai/ha, scale 0 to 100, 0 no effect, 100 complete control, read-out: Plant response rating, Bermudagrass
  pest or weed control at 16 g/ha: 0%
[1]; [11]
  pest or weed control at 31 g/ha: 0%
  pest or weed control at 62 g/ha: 0%
[1]; pre-emergence, Preemergence, scale 0 to 100, read-out: Plant response rating, Bermudagrass
  pest or weed control at 125 g/ha: 20%
Soybean (Glycine max); [12]
  plant injury at 31 g/ha: 90%
  plant injury at 62 g/ha: 100%
Soybean (Glycine max); post-emergence, Postemergence, 125 g ai/ha, scale 0 to 100 (0 no effect, 100 complete control), read-out: Soybean plant response rating
  plant injury at 125 g/ha: 100%
Soybean (Glycine max); post-emergence, Postemergence, 250 g ai/ha, scale 0 to 100, read-out: Plant response rating, Soybean
  plant injury at 250 g/ha: 100%
Soybean (Glycine max); pre-emergence, Preemergence, 16 g ai/ha, scale 0 to 100, 0 no effect, 100 complete control, read-out: Plant response rating, Soybean
  plant injury at 16 g/ha: 30%
Soybean (Glycine max); [13]
  plant injury at 31 g/ha: 70%
  plant injury at 62 g/ha: 80%
[2]; [14]
  pest or weed control at 31 g/ha: 10%
  pest or weed control at 62 g/ha: 10%
[2]; post-emergence, Postemergence, scale 0 to 100 (0 no effect, 100 complete control), read-out: Johnsongrass plant response rating
  pest or weed control at 125 g/ha: 20%
[2]; post-emergence, Postemergence, 250 g ai/ha, scale 0 to 100, read-out: Plant response rating, Johnsongrass
  pest or weed control at 250 g/ha: 40%
[2]; pre-emergence, Preemergence, 16 g ai/ha, scale 0 to 100, 0 no effect, 100 complete control, read-out: Plant response rating, Johnsongrass
  pest or weed control at 16 g/ha: 0%
[2]; [15]
  pest or weed control at 31 g/ha: 10%
  pest or weed control at 62 g/ha: 20%
[2]; pre-emergence, Preemergence, scale 0 to 100, read-out: Plant response rating, Johnsongrass
  pest or weed control at 125 g/ha: 50%
[3]; post-emergence, Postemergence, scale 0 to 100 (0 no effect, 100 complete control), read-out: Foxtail, Giant plant response rating
  pest or weed control at 125 g/ha: 65%
[3]; [16]
  pest or weed control at 31 g/ha: 0%
  pest or weed control at 62 g/ha: 30%
[3]; post-emergence, Postemergence, 250 g ai/ha, scale 0 to 100, read-out: Plant response rating, Foxtail, Giant
  pest or weed control at 250 g/ha: 70%
[3]; pre-emergence, Preemergence, 16 g ai/ha, scale 0 to 100, 0 no effect, 100 complete control, read-out: Plant response rating, Foxtail, Giant
  pest or weed control at 16 g/ha: 0%
[3]; [17]
  pest or weed control at 31 g/ha: 0%
  pest or weed control at 62 g/ha: 0%
[3]; pre-emergence, Preemergence, scale 0 to 100, read-out: Plant response rating, Foxtail, Giant
  pest or weed control at 125 g/ha: 0%
[4]; [18]
  pest or weed control at 125 g/ha: 70%
  pest or weed control at 500 g/ha: 80%
[4]; [19]
  pest or weed control at 125 g/ha: 10%
  pest or weed control at 500 g/ha: 65%
[5]; [18]
  pest or weed control at 125 g/ha: 80%
  pest or weed control at 500 g/ha: 90%
[5]; [19]
  pest or weed control at 125 g/ha: 45%
  pest or weed control at 500 g/ha: 75%
[6]; [18]
  pest or weed control at 125 g/ha: 80%
  pest or weed control at 500 g/ha: 90%
[6]; [19]
  pest or weed control at 125 g/ha: 90%
  pest or weed control at 500 g/ha: 100%
[7]; [18]
  pest or weed control at 125 g/ha: 70%
  pest or weed control at 500 g/ha: 80%
[7]; [19]
  pest or weed control at 125 g/ha: 55%
  pest or weed control at 500 g/ha: 70%
[8]; [18]
  pest or weed control at 125 g/ha: 85%
  pest or weed control at 500 g/ha: 95%
[8]; [19]
  pest or weed control at 125 g/ha: 75%
  pest or weed control at 500 g/ha: 90%
[9]; [18]
  pest or weed control at 125 g/ha: 75%
  pest or weed control at 500 g/ha: 90%
[9]; [19]
  pest or weed control at 125 g/ha: 80%
  pest or weed control at 500 g/ha: 85%
